Measurements as given in PMC8834506, “Optimization of Thymidine Kinase-Based Safety Switch for Neural Cell Therapy” (Cells, 2022).
Entries after “also recorded” stand apart in the source; their conditions may differ.

Legend:
[1] = test system: Ubi-SR39h post-mitotic neurons differentiated from ReNcells; type: cell-based, human
Protocol: Figure 4 EC50 and kinetics of GCV-induced cell death in proliferating and post-mitotic ReNcells. SR39h was expressed in ReNcells (immortalized neural precursor cells that can be differentiated to post-mitotic neurons) under the control of the two different promoters: Ki67 or ubiquitin. Wild type ReNcells were used as control. […] (B–D) Kinetics of cell death of SR39-expressing ReNcells cells either under the control of cycle promoter Ki67 or ubiquitin promoter with increasing GCV concentrations of 1, 10, and 100 µM. Cell viability was measured every 24 h using a bioluminescent ATP-based assay (n = 3). (E) ReNcells were differentiated toward post-mitotic neurons for 21 days then treated with GCV for 10 days. Cell viability was measured using an ATP-based assay. Results are mean + SD of three independent experiments performed in triplicates. […]
Cell culture plate (96 wells plate Corning #3907, Corning, Lonay, Switzerland) were pre-coated with 60 μL per well of Poly-L-ornithine solution (Sigma, Merk, Eysins, Switzerland) at 37 °C for 30 min. […] For EC50 assays, the medium was changed daily for 4 days, then cell viability was assessed using an ATP-based assay. EC50 values for each construct were calculated using a four parameters equation (GraphPad, Prism8, San Diego, CA, USA). […] Luminescence was measured using Spectra L384/L96 (0.2 sec exposure, Molecular devices, Biberach an der Riß, Germany). […]

[2] = test system: Ki67-SR39h-expressing hESC transplanted into the striatum; test: In vivo prevention of tumor formation after striatal transplantation; design: species or system NOD/SCID mice; settings: 40 mg/kg/day i.p., 47 days post-transplantation
Protocol: Given the encouraging in vitro results, we next investigated whether this newly developed safety switch system (SR39h and different nucleoside analogs) could prevent tumor formation in vivo. For this purpose, 20,000 undifferentiated Ki67-SR39h-expressing hESC were transplanted into the striatum of NOD/SCID mice. […] A group of control mice received only a NaCl solution. […] Human cytoplasmic marker (HCM) staining confirmed the human (i.e., hESC-derived) origin of these tumors. Tumors cells were predominantly Ki67 positive with a rosette organization as frequently found in tumors of the central nervous system.
Figure 7 in vivo validation of suicide gene and inducers. (A) Schematic diagram of the experimental setup to detect tumor elimination in vivo. NOD/SCID mice were transplanted with 20,000 SR39h-expressing hESC through stereotactic injection into the striatum. 48 h post transplantation, mice were intraperitoneally injected with the respective nucleoside (40 mg/kg) for five consecutive days a week during a two-week period. Control mice were treated with a NaCl solution. Mice were sacrificed 47 days post transplantation. (B) Cresyl violet staining of a brain section. […] (C) Immunostaining of brain coronal section (sections from ACV-, PCV-, and GCV-treated mice are shown in the upper, middle, and lower row, respectively). Staining with the proliferation marker Ki67 and with the human cytoplasmic marker (HCM) are shown in red and green, respectively. Nuclei were counterstained with DAPI (blue). White arrows show residual proliferative cells form the graft. A merge of the three staining is shown in the right column. Each experimental group consisted of five mice.
Single cell transplant: Undifferentiated HS420 (expressing TK variants) were detached by TrypLE and concentrated at 20,000 cells/μL in Stemflex. 20,000 cells (1 μL) were injected into the right striatum using a 26-G Hamilton syringe (Hamilton, BGB Analytik AG, Boeckten, Switzerland). Injection coordinates for striatum were: bregma = 0.6 mm, mediolateral = 2 mm, dorsoventral = 3 mm.
Thirty days after termination of treatment with the respective antiviral nucleoside analogs or control (NaCl), mice were sacrificed by intracardiac perfusion of paraformaldehyde 4% in PBS. Brains were removed from the skull and post-fixed in the same fixative overnight.
Paraffin embedded brains were sectioned (coronal sections 7 µm thick) and processed for hematoxylin and eosin or cresyl violet staining stain aiming morphological assessment of the graft. Sections were mounted in Eukitt (Kindler GmbH, Germany) and observed under microscope (see below)
The primary antibody diluted in PBS with 0.3% Triton was incubated at 4 °C overnight in agitation. […]

In the case of Nc1nc(O)c2ncn(COC(CO)CO)c2n1 [GCV, ganciclovir], the “Cell death in post-mitotic neurons (in words)” value [1] is reported as “killed”, the “GCV concentration from which cell death induction was detected” value ([1]; human, 10 days) is reported as at least 10 µM and the Tumor formation ([2]; five consecutive days a week for two weeks, from 2 days after transplantation, five mice per group) is reported as “prevented tumor formation; also recorded: no major tumors; also recorded: impressive anti-tumor activities”. The “Mice with a small nuclei-rich region at the graft site” value ([2]; cresyl violet staining) was “did not observe any structures resembling tumors”.
